From patent US20200071675A1, “METHOD FOR PRODUCING ENDOTHELIAL CELLS” (TAKARA BIO INC., priority 2016, published 2020)
Read-outs that look alike come from different tables or passages of the source.

How the values were obtained:
[1] = system: KDR-positive vascular endothelial progenitor cells from human iPS cells (ChiPSC12 strain); assay: CD31-positive cell ratio (endothelial cell marker) by flow cytometry; format: cell-based
Description: Human iPS cells ([…]) were cultured in DEF-CS medium (Cellartis) in accordance with the instructions attached to the medium. In order to efficiently induce differentiation of mesodermal cells, iPS cells were coated with Matrigel (Matrigel Sandwich method) in accordance with the following procedures. […] Here, SB431542, another TGF-β inhibitor, was used as a negative control. The cells were collected at Day 11, and the cell numbers were counted.

[2] = system: KDR-positive vascular endothelial progenitor cells from human iPS cells (ChiPSC12 strain); assay: Cell numbers during differentiation of iPS cell-derived vascular endothelial progenitor cells cultured with a TGF-β inhibitor (Days 8 to 11); format: cell-based; conditions: for Cell Numbers (Day 19) / Cell Numbers (Day 30): cell numbers at Day 8 defined as 1
[3] = system: vascular endothelial cells induced from human iPS cells (ChiPSC12 strain); assay: Freezing and thawing of vascular endothelial cells induced with RepSox; conditions: cells induced with 20 μM RepSox, collected Days 18 to 22, stored in liquid nitrogen for 3 days, thawed at 37° C.
Description: The collected cells were washed, and suspended in Stem Cell Banker (TAKARA BIO INC.) so as to have a cell concentration of 3×10^6/mL, and 1 mL of each of the suspension was dispensed to vials. The vials were placed in a frozen-treated vessel (BICELL, Nihon Freezer Co., Ltd.), and the cells were subjected to slow freezing in a freezing storage chamber held at a temperature of −80° C. Thereafter, each vial was transferred to a liquid nitrogen, and stored for 3 days.
The frozen cells were warmed for 2 minutes and 30 seconds with a water bath warmed to 37° C., to thaw the cells. […] An entire amount of the remaining cells was added to a tube to which 8 mL of a medium for proliferating endothelial cells had been dispensed in advance. Thereafter, a vial was rinsed with 1 mL of a medium for proliferating endothelial cells, and a rinsed medium was added to the tube. The tube was centrifuged at 200×g for 5 minutes, and the supernatant was then discarded. The cells were suspended in a fresh medium for culturing endothelial cells, and the cells were seeded at a density of 2×10^4 cells/cm^2 to a culture vessel. […]
The cells were collected on a seventh day after thawing the cells, and the cell numbers were counted. At the same time, the CD31-positive cell ratio, an endothelial cell marker, was measured with a flow cytometry.

[4] = system: KDR-positive vascular endothelial progenitor cells from human iPS cells (ChiPSC12 strain)
Description: Human iPS cells (ChiPSC12 strain) were cultured in DEF-CS medium in accordance with the instructions attached to the medium.
TrypLE(trademark) Select was added to iPS cells that had been subcultured, and the cells were incubated at 37° C. for 3 to 7 minutes. The detached cells were collected as a single cell by pipetting, and the cell numbers were counted. […] Thereafter, the medium was exchanged with DEF-CS medium added with Matrigel diluted to 1:60, and the cells were cultured for additional 16 to 24 hours, thereby coating an upper layer of the cells with Matrigel.
The Matrigel-coated iPS cells obtained were differentiated into mesodermal cells in accordance with the following procedures. First, a medium of the Matrigel-coated iPS cells was exchanged with RPMI 1640 medium added with 100 ng/mL activin A, 2 mM GlutaMAX(trademark), and B27 supplement (without containing insulin) (this time point being defined as the beginning of the induction of differentiation=Day 0), and the cells were cultured for 24 hours (Day 1). Next, the medium was exchanged with RPMI 1640 medium added with 10 ng/mL hBMP4, 10 ng/mL hbFGF, 2 mM GlutaMAX, and B27 supplement, and the cells were cultured for 3 days (Day 4). Thereafter, the medium was exchanged with RPMI 1640 medium added with 100 ng/mL VEGF, 2 mM GlutaMAX, and B27 supplement, and the cells were cultured overnight (Day 5).
KDR-positive cells were separated from the cultured cells at Day 5 by using the magnetic-activated cell sorting, thereby isolating vascular endothelial progenitor cells. In order to separate the KDR-positive cells, an anti-KDR antibody to which a PE fluorescent label was bound was used as a primary antibody for labeling cells, and cells labeled with the primary antibody were collected with magnetic beads embedding anti-PE antibodies. […] Further, the medium at Day 6 was exchanged with RPMI 1640 medium added with B27 supplement, 50 units/mL penicillin, 50 μg/mL streptomycin, 2 mM GlutaMAX, and 100 ng/mL VEGF, and the cells were cultured for 2 days (Day 8).
Here, CD31 is a marker of endothelial cells, and CD34 is a marker of hematopoietic stems cells or endothelial progenitor cells. In addition, CD34 is also expressed in juvenile endothelial cells.

Compound | CD31-Positive (Day 19) ([1]; 10 μM inhibitor Days 8 to 11) [%] | CD31-Positive (Day 30) ([1]; 10 μM inhibitor Days 8 to 11) [%] | CD31-Positive (Day 19) ([1]; 20 μM inhibitor Days 8 to 11) [%] | CD31-Positive (Day 30) ([1]; 20 μM inhibitor Days 8 to 11) [%] | Cell Numbers (Day 19) ([2]; 10 μM inhibitor Days 8 to 11) | Cell Numbers (Day 30) ([2]; 10 μM inhibitor Days 8 to 11) | Cell Numbers (Day 19) ([2]; 20 μM inhibitor Days 8 to 11) | Cell Numbers (Day 30) ([2]; 20 μM inhibitor Days 8 to 11) | also measured
NC(=O)c1ccc(-c2nc(-c3ccc4c(c3)OCO4)c(-c3ccccn3)[nH]2)cc1 [SB431542] | 97.7 | 89.4 | 98.7 | 33.0 | 1.3 | 0.9 | 2.3 | 5.1 | –
Cc1cccc(-c2[nH]ncc2-c2ccc3ncccc3n2)n1 [RepSox] | 99.7 | 99.0 | 99.8 | 99.1 | 3.5 | 9.1 | 3.5 | 3.1 | CD31-Positive (Day 19) ([1]; 3 μM inhibitor Days 8 to 11): 98.9%; CD31-Positive (Day 30) ([1]; 3 μM inhibitor Days 8 to 11): 87.0%; CD31-positive ratios (Day 30) ([1]; text summary: 'in both the media containing 3 μM RepSox'): ≥ 87%; Cell Numbers (Day 19) ([2]; 3 μM inhibitor Days 8 to 11): 3.1; Cell Numbers (Day 30) ([2]; 3 μM inhibitor Days 8 to 11): 2.5; cell proliferation rates at Day 30 ([2]; text summary: 'in both the media containing 3 μM RepSox', relative to Day 8 = 1): ≥ 2.5; cell viability after thawing [3]: 87%; CD31+/CD34+ (Day 13) ([4]; 3 μM RepSox Day 8 to 11): 96.9%; CD31+/CD34+ (Day 18) ([4]; 3 μM RepSox Day 8 to 11): 93.3%; CD31+/CD34+ (Day 13) ([4]; 10 μM RepSox Day 8 to 11): 96.1%; CD31+/CD34+ (Day 18) ([4]; 10 μM RepSox Day 8 to 11): 94.4%; CD31+/CD34+ (Day 13) ([4]; 20 μM RepSox Day 8 to 11): 95.8%; CD31+/CD34+ (Day 18) ([4]; 20 μM RepSox Day 8 to 11): 96.1%; CD31+/CD34+ cells at Day 13 ([4]; regardless of the concentrations of RepSox (3, 10, 20 μM)): ≥ 95%
